The term IC50 denotes the concentration that inhibits the measured activity by half. Read a low IC50 as greater potency.

The record followed here is ChEMBL document CHEMBL1131889, “Synthesis and acetylcholinesterase inhibitory activity of huperzine A-E2020 combined compound” (Bioorg Med Chem Lett, 1999).

This assay concerns the target T1, Acetylcholinesterase (Rattus norvegicus, UniProt P37136).
T1 sequence (P37136 whole entry): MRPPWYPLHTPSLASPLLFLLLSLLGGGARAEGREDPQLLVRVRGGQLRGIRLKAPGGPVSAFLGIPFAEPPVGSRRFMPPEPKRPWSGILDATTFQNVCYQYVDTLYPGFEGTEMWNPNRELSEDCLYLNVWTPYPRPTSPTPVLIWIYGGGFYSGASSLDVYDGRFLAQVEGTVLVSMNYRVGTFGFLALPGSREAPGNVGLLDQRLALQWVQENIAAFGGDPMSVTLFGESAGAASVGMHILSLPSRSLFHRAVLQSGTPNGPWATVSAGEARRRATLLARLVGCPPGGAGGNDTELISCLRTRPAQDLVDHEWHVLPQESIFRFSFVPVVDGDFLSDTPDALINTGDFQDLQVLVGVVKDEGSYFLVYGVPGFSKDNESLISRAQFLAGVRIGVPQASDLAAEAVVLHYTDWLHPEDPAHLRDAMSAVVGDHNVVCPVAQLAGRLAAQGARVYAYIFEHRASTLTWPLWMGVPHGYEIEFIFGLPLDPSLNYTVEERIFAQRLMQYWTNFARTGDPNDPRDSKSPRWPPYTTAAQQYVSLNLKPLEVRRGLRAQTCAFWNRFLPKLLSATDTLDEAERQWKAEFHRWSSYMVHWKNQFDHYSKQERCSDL
In words: Inhibitory activity against Acetylcholinesterase (AChE) in rat brain hippocampal crude homogenate. It counts as tissue-based, Hippocampus.
Turning to `CC1(NCC2CCN(Cc3ccccc3)CC2)c2ccc(O)nc2CCC1O` (stereo not drawn), the IC50 is > 190 µM.

On to `COc1ccc2c(n1)CCC(OC)C2(C)NC(=O)C1CCN(Cc2ccccc2)CC1` (stereo not drawn), for which the IC50 worked out at 17.2 µM.

Consider `COc1ccc2c(n1)CCC(OC)C2(C)NCC1CCN(Cc2ccccc2)CC1` (stereo not drawn), for which the IC50 is > 177 µM.
